In brackets after ≈: the same amount, converted by molar mass.
Tests used:
Plasmodium falciparum [1] = assay: Antimalarial activity against CQ-resistant Plasmodium falciparum Dd2; assay type: functional, organism-based
Plasmodium falciparum [2] = assay type: functional, organism-based; conditions: W2
Plasmodium falciparum [3] = assay: microbe, parasite or virus in culture; conditions: 3D7
Description: Antiplasmodial activity against Plasmodium falciparum 3D7

Plasmodium falciparum [4] = assay: Antimalarial activity against Plasmodium falciparum RKL9; assay type: functional, organism-based
Plasmodium falciparum [5] = assay: microbe, parasite or virus in culture; conditions: 3D7, 48 h
[6] = Cytotoxicity against human MRC5 cells assessed as inhibition of cell growth incubated for 72 hrs by MTT assay; assay type: toxicity, cell-based
Plasmodium falciparum [7] = assay: Antiplasmodial activity against Plasmodium falciparum K1; assay type: functional, organism-based
Plasmodium falciparum [8] = assay: Antimalarial activity against Plasmodium falciparum 3D7 assessed as reduction in malarial growth measured after 48 hrs by SYBR green dye based analysis; assay type: functional, organism-based; conditions: 3D7, 48 h
Plasmodium falciparum [9] = assay: microbe, parasite or virus in culture; conditions: 3D7, 72 h
[10] = Cytotoxicity against african green monkey Vero cells assessed as cell viability measured after 48 hrs by MTT assay; assay type: toxicity, cell-based, Chlorocebus sabaeus; conditions: chlorocebus sabaeus, time 48 hrs

COc1ccc2nc(/C=C/c3ccncc3)cc(Cl)c2c1
IC50 (Plasmodium falciparum [1]): 2.54 µM

Cc1ccc(S(=O)(=O)NCCCCNc2ncnc3c2cnn3-c2ccc(F)cc2)cc1
IC50 (Plasmodium falciparum [2]): 5.13 µM

COc1ccc(-n2cc(-c3cncc4ccccc34)nn2)cn1
IC50 (Plasmodium falciparum [3]): 62 µM

O=S(=O)(NCCCCNc1ncnc2c1cnn2-c1ccc(Cl)cc1)c1ccc(F)cc1
IC50 (Plasmodium falciparum [2]): 43.4 µM

COc1ccc(-c2cc(-c3ccco3)nc(S)n2)cc1OCc1ccccc1
IC50 (Plasmodium falciparum [4]): 2 µg/mL (≈ 5.12 µM) | IC50 (Plasmodium falciparum [5]): 5.1 µg/mL (≈ 13.1 µM)

COc1cc(-c2cc(-c3cc(Cl)sc3Cl)nc(S)n2)ccc1OCc1ccccc1
IC50 (Plasmodium falciparum [4]): 6.1 µg/mL (≈ 12.8 µM) | IC50 (Plasmodium falciparum [5]): 9.9 µg/mL (≈ 20.8 µM)

O=S(=O)(c1ccc(-n2cc(COc3ccc(F)cc3)nn2)cc1)N1CCN(c2ccccn2)CC1
IC50 (Plasmodium falciparum [3]): > 50 µg/mL

O=S(=O)(c1ccc(-n2cc(COc3ccc(Br)cc3)nn2)cc1)N1CCN(c2ccccn2)CC1
IC50 (Plasmodium falciparum [3]): 46 µg/mL

COc1cc(-c2cc(-c3cc(Cl)sc3Cl)nc(N)n2)ccc1OCc1ccccc1
IC50 (Plasmodium falciparum [4]): 2.9 µg/mL (≈ 6.33 µM) | IC50 (Plasmodium falciparum [5]): 6.3 µg/mL (≈ 13.7 µM)

O=C1CCCN1c1ccc(-n2nc3c(S(=O)(=O)N4CCOCC4)cccn3c2=O)cc1
IC50 at 72 h [6]: > 64 µM | IC50 (Plasmodium falciparum [7]): 27.8 µM

Cc1cc(=O)oc2cc(OCc3cn(-c4ccc(S(=O)(=O)N5CCN(c6ccccn6)CC5)cc4)nn3)ccc12
IC50 (Plasmodium falciparum [3]): > 71.7 µg/mL

COc1ccccc1C(=O)/C=C/c1ccccn1
IC50 (Plasmodium falciparum [3]): 0.48 µg/mL

NCCCCNc1ncnc2c1cnn2-c1ccc(F)cc1
IC50 (Plasmodium falciparum [2]): 21.6 µM

Cc1cc(C)nc(NS(=O)(=O)c2ccc(-n3cc(COc4ccc5ccc(=O)oc5c4)nn3)cc2)n1
IC50 (Plasmodium falciparum [8]): > 79.4 µM

Cc1ccc(-n2ncc3c(NCCCCNS(=O)(=O)c4ccc(C)cc4)ncnc32)cc1
IC50 (Plasmodium falciparum [2]): 12.2 µM

NCCCCNc1ncnc2c1cnn2-c1ccc(Cl)cc1
IC50 (Plasmodium falciparum [2]): 13.2 µM

COc1ccc(C2c3c(C)n[nH]c3Oc3nc4oc(=O)c(C#N)c(N)c4c(N)c32)cc1OC (centres undefined)
IC50 (Plasmodium falciparum [3]): 0.96 µg/mL

Cc1ccc(-n2ncc3c(NCCCCN)ncnc32)cc1
IC50 (Plasmodium falciparum [2]): 18.2 µM

Cc1ccc(-c2nn(-c3ccccc3)cc2/C=C/c2nnc(-c3ccncc3)o2)cc1
IC50 (Plasmodium falciparum [4]): 1.7 µg/mL (≈ 4.19 µM) | IC50 (Plasmodium falciparum [8]): 0.4 µg/mL

O=c1cc(OCc2cn(-c3ccc(S(=O)(=O)N4CCN(c5ccccn5)CC4)cc3)nn2)c2ccccc2o1
IC50 (Plasmodium falciparum [3]): 73.5 µg/mL

O=S(=O)(c1ccc(-n2cc(COc3ccc(I)cc3)nn2)cc1)N1CCN(c2ccccn2)CC1
IC50 (Plasmodium falciparum [3]): 12 µg/mL

COc1ccc(-c2cc(-c3ccco3)nc(N)n2)cc1OCc1ccccc1
IC50 (Plasmodium falciparum [4]): 3.2 µg/mL (≈ 8.57 µM) | IC50 (Plasmodium falciparum [5]): 4.4 µg/mL (≈ 11.8 µM)

C(=C\c1cn(-c2ccccc2)nc1-c1ccccc1)/c1nnc(-c2ccncc2)o1
IC50 (Plasmodium falciparum [4]): 0.8 µg/mL (≈ 2.04 µM) | IC50 (Plasmodium falciparum [8]): 0.5 µg/mL

COc1ccc2nc(/C=C/c3ccncc3)ccc2c1
IC50 (Plasmodium falciparum [1]): > 10 µM

O=S(=O)(c1ccc(-n2cc(COc3ccc(Cl)cc3)nn2)cc1)N1CCN(c2ccccn2)CC1
IC50 (Plasmodium falciparum [3]): > 50 µg/mL

COc1cc(-c2cc(-c3ccco3)nc(S)n2)ccc1OCc1ccccc1
IC50 (Plasmodium falciparum [4]): 5.4 µg/mL (≈ 13.8 µM) | IC50 (Plasmodium falciparum [5]): 12.2 µg/mL (≈ 31.2 µM)

O=c1n(-c2cccc(Cl)c2)nc2c(S(=O)(=O)N3CCCCC3)cccn12
IC50 at 72 h [6]: > 64 µM | IC50 (Plasmodium falciparum [7]): 2.24 µM

Cc1cccc(-n2nc3ccc(S(=O)(=O)N4CCC(C)CC4)cn3c2=O)c1
IC50 at 72 h [6]: > 64 µM | IC50 (Plasmodium falciparum [7]): 8 µM

O=S(=O)(c1ccc(-n2cc(COc3ccccc3)nn2)cc1)N1CCN(c2ccccn2)CC1
IC50 (Plasmodium falciparum [3]): 48.5 µg/mL

O=c1ccc2ccc(OCc3cn(-c4ccc(S(=O)(=O)N5CCN(c6ccccn6)CC5)cc4)nn3)cc2o1
IC50 (Plasmodium falciparum [3]): > 73.5 µg/mL

Cc1n[nH]c2c1C(c1ccc(Cl)cc1)c1c(nc3oc(=O)c(C#N)c(N)c3c1N)O2 (centres undefined)
IC50 (Plasmodium falciparum [3]): 0.84 µg/mL

COc1cc(-c2cc(-c3ccco3)nc(N)n2)ccc1OCc1ccccc1
IC50 (Plasmodium falciparum [4]): 10.5 µg/mL (≈ 28.1 µM) | IC50 (Plasmodium falciparum [5]): 20 µg/mL (≈ 53.6 µM)

COc1ccc(-c2cc(-c3cc(Cl)sc3Cl)nc(S)n2)cc1OCc1ccccc1
IC50 (Plasmodium falciparum [4]): 2.2 µg/mL (≈ 4.63 µM) | IC50 (Plasmodium falciparum [5]): 4.2 µg/mL (≈ 8.83 µM)

O=[N+]([O-])c1ccc(OCc2cn(-c3ccc(S(=O)(=O)N4CCN(c5ccccn5)CC4)cc3)nn2)cc1
IC50 (Plasmodium falciparum [3]): > 50 µg/mL

Cc1cc(C)nc(NS(=O)(=O)c2ccc(-n3cc(COc4ccc5c(-c6ccccc6)c(C)c(=O)oc5c4)nn3)cc2)n1
IC50 (Plasmodium falciparum [8]): > 67.3 µM

Cc1n[nH]c2c1C(c1ccc(Br)cc1)c1c(nc3oc(=O)c(C#N)c(N)c3c1N)O2 (centres undefined)
IC50 (Plasmodium falciparum [3]): 1.85 µg/mL

Cc1nn(-c2ccccc2)c(-n2ccnc2)c1-c1cc(-c2cc[nH]c2)nc2nc3ccccc3n12
IC50 (Plasmodium falciparum [5]): 0.07 µg/mL (≈ 0.153 µM)

Cc1n[nH]c2c1C(c1ccc(F)cc1)c1c(nc3oc(=O)c(C#N)c(N)c3c1N)O2 (centres undefined)
IC50 (Plasmodium falciparum [3]): 1.48 µg/mL

C[C@H]1[C@H](OC(=O)CCC(=O)O)O[C@@H]2O[C@@]3(C)CC[C@H]4[C@H](C)CC[C@@H]1[C@@]24OO3 [ARTESUNATE]
IC50 (Plasmodium falciparum [9]): 1 µM

CC/C=C\C/C=C\C/C=C\C/C=C\C/C=C\C/C=C\CCC(=O)O [DOCONEXENT]
IC50 (Plasmodium falciparum [3]): 0.004 µM

CC(C)=CCC1=C(O)C(=O)c2ccccc2C1=O [LAPACHOL]
CC50 at 48 h [10]: > 4130 µM

COc1ncnc(NS(=O)(=O)c2ccc(N)cc2)c1OC [SULFADOXINE]
IC50 (Plasmodium falciparum [2]): 15 µM
